Experiment [1] concerns the target T1, recombinant human SOS1 polypeptide (amino acids 560-1049) (Homo sapiens, UniProt Q07889).
T1 construct: corresponding to amino acids 560-1049, expressed in E. Coli; made in house; host or cells: E. coli
T1 sequence (Q07889 560-1049): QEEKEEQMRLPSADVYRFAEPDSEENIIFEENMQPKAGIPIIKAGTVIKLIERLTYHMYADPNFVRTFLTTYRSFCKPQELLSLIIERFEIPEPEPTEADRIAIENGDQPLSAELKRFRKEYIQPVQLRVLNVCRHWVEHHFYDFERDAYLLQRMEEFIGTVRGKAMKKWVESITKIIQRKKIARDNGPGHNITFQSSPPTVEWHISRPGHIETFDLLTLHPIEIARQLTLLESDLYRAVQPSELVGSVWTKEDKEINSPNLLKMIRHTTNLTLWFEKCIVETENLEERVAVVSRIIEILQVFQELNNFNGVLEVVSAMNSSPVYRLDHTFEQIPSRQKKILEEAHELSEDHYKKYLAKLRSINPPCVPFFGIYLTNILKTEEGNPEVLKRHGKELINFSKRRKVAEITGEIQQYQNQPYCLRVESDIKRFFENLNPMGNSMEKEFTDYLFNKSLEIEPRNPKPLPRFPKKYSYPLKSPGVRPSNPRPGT
The experiment in a line: HTRF displacement assay: inhibition of labeled tracer binding to SOS1. The conditions noted are these: Table A, Morrison equation for competitive binding.

In experiment [2] the test system is pERK in MKN1 cells. In words: pERK inhibition, In-Cell Western (LI-COR Odyssey), MKN1 cells. As to conditions: Homo sapiens, MKN-1, Table B; MKN1 or H358 cells (table does not say which); 0.5-1 hour incubation; read-out: IC50 (nM), pERK inhibition. The class given is cell-based. Summed up:
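IC50 was fitted from % pERK inhibition, calculated as the GAPDH-normalised pERK signal of each well divided by the vehicle mean. Signal was imaged at 700 and 800 nm after fixation, methanol permeabilisation and dual antibody staining. Before fixation, MKN1 cells had received compound for about 0.5–1 h at 37 °C, top concentration 10 µM, nine 3-fold dilutions.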

Structures are written as SMILES.

The term Ki denotes the equilibrium dissociation constant of an inhibitor or competing ligand from its target. In general, IC50 refers to the concentration that inhibits the measured activity by half. As to `Cc1nnc(N[C@H](C)c2cccc(C(F)(F)F)c2F)c2cc(N(C)[C@H]3CCOC3)ncc12` [Example 1-72, N^1-((R)-1-(2-fluoro-3-(trifluoromethyl)phenyl)ethyl)-N^7,4-dimethyl-N^7-((S)-tetrahydrofuran-3-yl)pyrido[3,4-d]pyridazine-1,7-diamine], the inhibition constant (Ki) in experiment [1] stood at 1.74 nM. In experiment [2], the 50% inhibitory concentration (IC50) amounted to 118 nM.

For the molecule `Cc1nnc(N[C@H](C)c2cccc(C(F)(F)F)c2F)c2cc(N(C)[C@@H]3CCOC3)ncc12` [Example 1-73, N^1-((R)-1-(2-fluoro-3-(trifluoromethyl)phenyl)ethyl)-N^7,4-dimethyl-N^7-((R)-tetrahydrofuran-3-yl)pyrido[3,4-d]pyridazine-1,7-diamine], the Ki in experiment [1] was found to be 1.16 nM. In addition, the IC50 in experiment [2] stood at 54.8 nM.

For the molecule `Cc1c(C#N)cccc1[C@@H](C)Nc1nnc(C)c2cnc(N(C)[C@@H]3CCOC3)cc12` [Example 1-74, 2-methyl-3-((R)-1-((4-methyl-7-(methyl((R)-tetrahydrofuran-3-yl)amino)pyrido[3,4-d]pyridazin-1-yl)amino)ethyl)benzonitrile], the inhibitory constant (Ki) in experiment [1] worked out at 2.34 nM. Further, in experiment [2], the IC50 stood at 39.9 nM.

For `Cc1nnc(N[C@H](C)c2cccc(C(F)(F)F)c2F)c2cc(N(C)[C@@H]3CCN(C(C)C)C3)ncc12` [Example 1-76, N^1-((R)-1-(2-fluoro-3-(trifluoromethyl)phenyl)ethyl)-N^7-((R)-1-isopropylpyrrolidin-3-yl)-N^7,4-dimethylpyrido[3,4-d]pyridazine-1,7-diamine], the inhibitory constant (Ki) in experiment [1] worked out at 0.367 nM. Besides, the half-maximal inhibitory concentration (IC50) in experiment [2] was found to be 119 nM.

On to `Cc1nnc(N[C@H](C)c2cccc(C(F)(F)F)c2F)c2cc(N(C)[C@H]3CCN(C(C)C)C3)ncc12` [Example 1-77, N^1-((R)-1-(2-fluoro-3-(trifluoromethyl)phenyl)ethyl)-N^7-((S)-1-isopropylpyrrolidin-3-yl)-N^7,4-dimethylpyrido[3,4-d]pyridazine-1,7-diamine], for which the inhibitory constant (Ki) in experiment [1] amounted to 0.647 nM. The concentration for half-maximal inhibition (IC50) in experiment [2] was 121 nM.

As for `Cc1c(C#N)cccc1[C@@H](C)Nc1nnc(C)c2cnc(N(C)[C@H]3CCCN(C)C3)cc12` [Example 1-81, 2-methyl-3-((R)-1-((4-methyl-7-(methyl((S)-1-methylpiperidin-3-yl)amino)pyrido[3,4-d]pyridazin-1-yl)amino)ethyl)benzonitrile], the Ki in experiment [1] was determined as 0.865 nM. The IC50 in experiment [2] turned out to be 62.4 nM.

In the case of `Cc1c(C#N)cccc1[C@@H](C)Nc1nnc(C)c2cnc(N(C)[C@@H]3CCCN(C)C3)cc12` [Example 1-82, 2-methyl-3-((R)-1-((4-methyl-7-(methyl((R)-1-methylpiperidin-3-yl)amino)pyrido[3,4-d]pyridazin-1-yl)amino)ethyl)benzonitrile], the Ki in experiment [1] is 1.16 nM. For the same molecule, the IC50 in experiment [2] is 85.2 nM.

With `Cc1nnc(N[C@H](C)c2cccc(C(F)(F)F)c2F)c2cc(N(C)C3CCN(C)CC3)ncc12` [Example 1-83, (R)-N^1-(1-(2-fluoro-3-(trifluoromethyl)phenyl)ethyl)-N^7,4-dimethyl-N^7-(1-methylpiperidin-4-yl)pyrido[3,4-d]pyridazine-1,7-diamine], the inhibition constant Ki in experiment [1] turned out to be 0.788 nM. Besides, the half-inhibitory concentration (IC50) in experiment [2] stood at 82.8 nM.

For the molecule `Cc1c(C#N)cccc1[C@@H](C)Nc1nnc(C)c2cnc(N3CCS(=N)(=O)CC3)cc12` [Example 1-84, (R)-3-(1-((7-(1-imino-1-oxido-thiomorpholino)-4-methylpyrido[3,4-d]pyridazin-1-yl)amino)ethyl)-2-methylbenzonitrile], the inhibition constant (Ki) in experiment [1] is 2.34 nM. Also, in experiment [2], the 50% inhibitory concentration (IC50) was determined as 2730 nM.

Turning to `Cc1nnc(N[C@H](C)c2cccc(C(F)(F)F)c2F)c2cc(N(C)[C@H]3CCCN(C)C3)ncc12` [Example 1-85, N^1-((R)-1-(2-fluoro-3-(trifluoromethyl)phenyl)ethyl)-N^7,4-dimethyl-N^7-((S)-1-methylpiperidin-3-yl)pyrido[3,4-d]pyridazine-1,7-diamine], in experiment [1], the inhibition constant (Ki) came to 0.662 nM. Besides, the half-inhibitory concentration (IC50) in experiment [2] stood at 185 nM.

Source of the values: patent US20250059182A1, “SOS1 INHIBITORS” (Mirati Therapeutics, Inc., priority 2021, published 2025).
